Paper PMC8582287 (International journal of antimicrobial agents, 2020)
“Also recorded” adds a separate entry of the source. Like-named read-outs stand apart in the source and are kept apart here.

Experiments:
HepG2 (hepatocyte) cells = experiment: Cytotoxicity in HepG2 cells, Alamar Blue; assay type: cell-based, human; settings: read-out: Cytotoxicity CC50 HEP-G2, 48h
[1] = tested on: CRL-8155 (lymphocyte) cells; experiment: Cytotoxicity in CRL-8155 cells, Alamar Blue; assay type: cell-based, human; settings: read-out: Cytotoxicity CC50 CRL-8155, 48h
[2] = tested on: human foreskin fibroblasts (HFF); experiment: Cytotoxicity in human foreskin fibroblasts, Alamar blue; assay type: cell-based; settings: read-out: Cytotoxicity CC50 HFF, 3 days, 0.0009-20 μM
[3] = tested on: zebrafish (Danio rerio) embryos; experiment: Zebrafish embryo development test with impact score Si; assay type: in vivo; settings: for Embryo toxicity in the zebrafish assay (in words) / Lowest concentration exerting a negative Si: 0.2-50 μM; for Embryo toxicity in the zebrafish assay (in words): 96hpf; for Lowest concentration exerting a negative Si: zebrafish embryos, until 96h post fertilization; for Embryonal alterations observed during BKI-exposure: 24h, representative image
pregnant BALB/c mice [4] = settings: mouse, in vivo, 50 mg/kg/day
[5] = tested on: T. gondii oocyst infection; settings: pregnant CD1 mice, ref [20]; cited from earlier work
N. caninum tachyzoites [6] = settings: read-out: Proliferation EC50 N.caninum, ref [25]; cited from earlier work
[7] = tested on: human Ether-à-go-go Related Gene (hERG); settings: cited from earlier work
pregnant BALB/c mice [8] = experiment: Assessment of BKI-interference in pregnancy in non-infected mice; settings: for Offspring mortality (dead/born pups): 50 mg/kg/day oral gavage for 5 days, follow-up 14 days
N. caninum tachyzoites [9] = settings: read-out: Proliferation EC50 N.caninum
rats = settings: when dosed in rats; no reference given; cited from earlier work
[10] = tested on: Neospora-infected pregnant mice; settings: 50mg/kg, ref [23]; cited from earlier work
[11] = 50 mg/kg/day oral gavage in corn oil for 5 days

Compound	CC50 (HepG2 (hepatocyte) cells) [µM]	CC50 [1] [µM]	CC50 [2] [µM]	Embryo toxicity in the zebrafish assay (in words) [3]	Offspring mortality (dead/born pups) (pregnant BALB/c mice [8])	EC50 (N. caninum tachyzoites [9]) [µM]	Fertility (pregnant/mated females) (pregnant BALB/c mice [8]; [11])	further results
CCOc1ccc2cc(-c3nn(CC4CCN(C)CC4)c4ncnc(N)c34)ccc2c1 [BKI-1294]	> 40	> 40	> 20	very low embryo toxicity	0/27	–	–	Lowest concentration exerting a negative Si [3]: ≥ 40 µM; Lowest concentration exerting a negative Si ([3]; listed as 1294): 40 µM; Overall number of pups born (pregnant BALB/c mice [4]): 27; Pups/dams (pregnant BALB/c mice [4]; po): 27/4; Offspring survival [5]: 100%; EC50 (N. caninum tachyzoites [6]): 0.04 µM; hERG inhibition in vitro ([7]; ref [24]): inhibited
CCOc1ccc2cc(-c3nn(CC4CCN(C)CC4)c4ncnc(N)c34)ccc2n1 [BKI-1369]	> 80	> 80	> 20	very low embryo toxicity	0/31	0.035	5/6	Pups/dams (pregnant BALB/c mice [8]; [11]): 31/5
CCOc1ccc2cc(-c3nn(C(C)(C)C)c(N)c3C(N)=O)cnc2c1 [BKI-1517]	> 40	> 40	> 20	high toxicity at all concentrations	–	0.269	^*2/7	Embryonal alterations observed during BKI-exposure ([3]; 20 μM): tail curvature; also recorded: half-hatched embryo; Embryonal alterations observed during BKI-exposure ([3]; 50 μM): pericardial edema; Lowest concentration exerting a negative Si ([3]; listed as 1517): 0,2 μM; Lowest concentration exerting a negative Si ([3]; listed as -1517): 0.2 µM; Change in mean arterial pressure (rats): significant change in mean arterial pressure; hERG inhibition in vitro ([7]; no reference given): did not inhibit; Neonatal mortality [10]: 100%
